Counter-ions that a name gives are not always drawn.
Columns and labels:
[1] = tested on: Sprague-Dawley rats; experiment: Acute Toxicity Study (single oral dose, mortality); type: in vivo, rat (Sprague-Dawley); conditions: for Mortality, Female / Mortality, Male: single oral gavage, observed for 15 days; for Mortality, Female: female rats; for Mortality, Male: male rats
Protocol: (§1) A single equimolar dose of each compound is administered orally by gavage as a 3% corn starch suspension to 5 female and 5 male Sprague-Dawley rats. The animals are there observed for 15 days.
(§2) The comparative incidence of mortality for the free acid of formula I, the triethanolamine salt thereof and the tromethamine salt of formula II are as follows: […]

[2] = antiinflammatory activity; type: in vivo; conditions: in words
Protocol: The compound can be administered to the animals either enterally, preferably orally, parenterally, e.g. subcutaneously or intravenously, or topically, for example, in the form of aqueous solutions or suspensions. The applied dosage may range between about 0.1 and 100 mg/kg/day, preferably between about 1 and 50 mg/kg/day. The tests include the classical in vivo assay methods for said activities, such as the carrageenin paw-edema, adjuvant arthritis tests in rats, and the canine synovitis test.

[3] = tested on: cell-mediated immunity; experiment: enhancement of depressed cell-mediated immunity; type: in vivo, rat; conditions: in words
Protocol: Immunopotentiating effects can be determined in BCG-immunized animals. In vitro, the enhancement of cell-mediated immunity is determined by measuring the increase in chemotaxis of macrophages isolated from BCG-immunized rats. In vivo, such is determined in the BCG-immunized adjuvant arthritic rat by measuring the effect on delayed hypersensitivity reaction essentially as described in Current Therapeutic Research 30, S34 (1981).

[4] = tolerability at therapeutically effective doses; type: in vivo
[5] = tested on: cartilage matrix; experiment: inhibition of cartilage matrix degradation; type: cell-based, bovine; conditions: in words
Protocol: The effect on cartilage matrix degradation can be determined in the cartilage-synovium co-culture model of matrix degradation which is carried out as follows:
The proteoglycan matrix of bovine nasal septum cartilage is labeled in vitro by incorporation of ^35 S into glycosaminoglycan. Cartilage slices are incubated overnight in a sulfate-free medium containing ^35 S-sodium sulfate. ^35 S-Labeled cartilage slices are co-cultured with normal synovium explants in multiwell tissue culture plates. After 4 days incubation a 100 μl aliquot of medium is counted. Cartilage slices are hydrolyzed and a 100 μl aliquot of cartilage hydrolysate is counted. The percent ^35 S released into the medium is determined and the percent of inhibition of matrix degradation is calculated.

[6] = Acute Toxicity Study (single oral dose, mortality); type: in vivo, rat (Sprague-Dawley); conditions: rat, in vivo, po, 2400 umol/kg, 2.4 millimoles/Kg p.o., rat, both sexes; read-out: mortality rate
Protocol: as §1, §2

[7] = 2.4 Millimoles/Kg, listed as II
[8] = 3.6 Millimoles/Kg, listed as II

Cn1cccc1C(=O)C(C#N)C(=O)Nc1ccccc1 (stereo not drawn) [formula I, 1-methyl-beta-oxo-alpha-phenylcarbamoyl-2-pyrrolepropionitrile]
Mortality, Female ([1]; 1.2 Millimoles/Kg): 0/5
Mortality, Male ([1]; 1.2 Millimoles/Kg): 0/5
Mortality, Female ([1]; 2.4 Millimoles/Kg, listed as I): 2/5
Mortality, Male ([1]; 2.4 Millimoles/Kg, listed as I): 2/5
mortality rate ([1]; 2.4 millimoles/Kg p.o., rat, both sexes, 21600 min): 40%
Mortality, Female ([1]; 3.6 Millimoles/Kg, listed as I): 4/5
Mortality, Male ([1]; 3.6 Millimoles/Kg, listed as I): 4/5

Cn1cccc1C(=O)C(C#N)C(=O)Nc1ccccc1 (stereo not drawn) [formula II, 1-methyl-beta-oxo-alpha-(phenylcarbamoyl)-2-pyrrolepropionitrile (1:1) tromethamine salt]
antiinflammatory activity [2]: displays antiinflammatory
enhancement of depressed cell-mediated immunity [3]: enhancement of depressed cell-mediated immunity
Mortality, Female [1, 7]: 0/5
Mortality, Male [1, 7]: 0/5
deaths (animals) ([1]; 2.4 millimoles/Kg p.o., rat, both sexes): 0/10
Mortality, Female [1, 8]: 5/5
Mortality, Male [1, 8]: 5/5
acute toxicity compared with free acid of formula I or the triethanolamine salt ([1]; rat, in words): less toxic than the free acid of formula I or the triethanolamine salt thereof
tolerability [4]: well tolerated
undesirable side effects [4]: essentially free of undesirable side effects
inhibition of cartilage matrix degradation [5]: inhibition of cartilage matrix degradation

Cn1cccc1C(=O)C(C#N)C(=O)Nc1ccccc1 (stereo not drawn) [triethanolamine salt, triethanolamine salt of 1-methyl-beta-oxo-alpha-(phenylcarbamoyl)-2-propionitrile]
mortality at 360 h [6]: 50%
Mortality, Female ([1]; 2.4 Millimoles/Kg): 3/5
Mortality, Male ([1]; 2.4 Millimoles/Kg): 2/5
Mortality, Female ([1]; 3.6 Millimoles/Kg): 5/5
Mortality, Male ([1]; 3.6 Millimoles/Kg): 5/5
